According to ChEMBL document CHEMBL5154716, “Neuropeptide B/W receptor 1 peptidomimetic agonists: Structure-activity relationships and plasma stability” (Eur J Med Chem, 2022):
Values belong to the compound of their own block, whether it stands above or below them. Non-standard residues stand in square brackets, D forms with d. Residues, ends and D or L forms follow the SMILES beside them. *: point of attachment. Propanoyl(3-indol-3-yl) = O=C(CCc1c[nH]c2ccccc12)*; Trp(1-Me) = Cn1cc(C[C@H](N)C(=O)O)c2ccccc21; Tle = CC(C)(C)[C@H](N)C(=O)O; Ava = NCCCCC(=O)O

Assays:
[1] = biological target: T1, Neuropeptides B/W receptor type 1 (Homo sapiens, UniProt P48145); test: (§1) Agonist activity at human NPBWR1 expressed in CHO-RD-HGA16 cells measured by calcium mobilization assay; format: functional, cell-based
T1 sequence (P48145 whole entry): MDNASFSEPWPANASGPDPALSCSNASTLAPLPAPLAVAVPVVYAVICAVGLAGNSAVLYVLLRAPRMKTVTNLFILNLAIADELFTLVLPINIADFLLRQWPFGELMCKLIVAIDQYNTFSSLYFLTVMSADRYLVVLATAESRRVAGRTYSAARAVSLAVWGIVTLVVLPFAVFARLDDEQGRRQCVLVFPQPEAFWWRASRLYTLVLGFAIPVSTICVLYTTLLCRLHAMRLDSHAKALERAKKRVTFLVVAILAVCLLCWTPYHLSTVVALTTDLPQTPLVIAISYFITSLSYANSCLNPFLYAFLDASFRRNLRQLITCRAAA

[2] = biological target: T2, Neuropeptides B/W receptor type 1 (Homo sapiens) (UniProt P48145); test: Agonist activity at human NPBWR1 expressed in CHO-RD-HGA16 cells measured by calcium mobilization assay relative to control; format: functional, cell-based
T2 sequence (whole entry): T1 sequence (P48145 whole entry)

[3] = biological target: T1, Neuropeptides B/W receptor type 1; test: Antagonist activity at human NPBWR1 expressed in CHO-RD-HGA16 cells measured by calcium mobilization assay; format: functional, cell-based
[4] = biological target: T2, Neuropeptides B/W receptor type 1 (Homo sapiens); test: Antagonist activity at human NPBWR1 expressed in CHO-RD-HGA16 cells at 10 uM measured by calcium mobilization assay relative to control; format: functional, cell-based; parameters: scale not given: the % may be the effect or the level left; conditions: filed as antagonist
[5] = Metabolic stability in male Sprague-Dawley rat plasma assessed as compound remaining at 1 uM measured after […] by LC-MS/MS analysis; format: ADME, cell-free; conditions: read-out: Stability
[6] = biological target: T1, Neuropeptides B/W receptor type 1; test: Agonist activity at human NPBWR1 expressed in CHO cells measured by LANCE Ultra cAMP kit-based TR-FRET assay; format: functional, cell-based
[7] = Metabolic stability in male Sprague-Dawley rat plasma assessed as half-life at 1 uM measured after 240 mins by LC-MS/MS analysis; format: ADME, cell-free
[8] = biological target: T2, Neuropeptides B/W receptor type 1 (Homo sapiens); test: as §1; format: functional, cell-based; conditions: filed as agonist

Structure (SMILES): CC(C)C[C@H](NC(=O)CNC(=O)[C@H](C)NC(=O)[C@H](C)NC(=O)[C@H](CCCNC(=N)N)NC(=O)CNC(=O)CCCCNC(=O)CCCCNC(=O)CCCCNC(=O)[C@H](CCCCN)NC(=O)[C@@H](NC(=O)[C@@H](N)Cc1c[nH]c2ccccc12)[C@@H](C)O)C(=O)N[C@H](C(N)=O)C(C)(C)C (H-WTK[Ava][Ava][Ava]GRAAGL[Tle]-NH2)
EC50 [1]: 479 nM

Structure (SMILES): CC(C)C[C@H](NC(=O)[C@H](CC(C)C)NC(=O)CNC(=O)[C@H](C)NC(=O)[C@H](C)NC(=O)[C@H](CCCNC(=N)N)NC(=O)CNC(=O)CCCCNC(=O)CCCCNC(=O)CCCCNC(=O)[C@H](CCCCN)NC(=O)[C@H](Cc1ccc(O)cc1)NC(=O)[C@H](Cc1c[nH]c2ccccc12)NC(=O)[C@@H](N)Cc1cn(C)c2ccccc12)C(N)=O (H-[Trp(1-Me)]WYK[Ava][Ava][Ava]GRAAGLL-NH2)
EC50 [1]: > 10000 nM | IC50 [3]: 545 nM

Structure (SMILES): CCCCCCCCCCCCCCCC(=O)NCCCC[C@H](NC(=O)[C@H](CCCCN)NC(=O)[C@H](CCCCN)NC(=O)[C@H](CCCCN)NC(=O)[C@H](Cc1ccc(O)cc1)NC(=O)[C@@H](N)Cc1c[nH]c2ccccc12)C(=O)N[C@@H](CCCCN)C(=O)NCCCCC(=O)NCC(=O)N[C@@H](CCCNC(=N)N)C(=O)N[C@@H](C)C(=O)N[C@@H](C)C(=O)NCC(=O)N[C@@H](CC(C)C)C(=O)N[C@@H](CC(C)C)C(N)=O
EC50 ([1]; cho-rd-hga16): > 10000 nM | IC50 ([3]; cho-rd-hga16): 406 nM

Structure (SMILES): CC(C)C[C@H](NC(=O)[C@H](CC(C)C)NC(=O)CNC(=O)[C@H](C)NC(=O)[C@H](C)NC(=O)[C@H](CCCNC(=N)N)NC(=O)CNC(=O)CCCCNC(=O)CCCCNC(=O)CCCCNC(=O)[C@H](CCCCN)NC(=O)[C@H](NC(=O)[C@@H](N)Cc1c[nH]c2ccccc12)[C@@H](C)O)C(N)=O
EC50 [1]: > 10000 nM | Activity [4]: 81%

Structure (SMILES): CC(C)C[C@H](NC(=O)CNC(=O)[C@H](CO)NC(=O)[C@H](CC(C)C)NC(=O)[C@H](CC(C)C)NC(=O)CNC(=O)[C@H](C)NC(=O)[C@H](C)NC(=O)[C@H](CCCNC(=N)N)NC(=O)CNC(=O)[C@@H](NC(=O)[C@H](CO)NC(=O)[C@H](Cc1ccc(O)cc1)NC(=O)[C@H](CO)NC(=O)[C@H](CO)NC(=O)[C@H](Cc1cnc[nH]1)NC(=O)CNC(=O)[C@H](C)NC(=O)[C@H](C)NC(=O)[C@@H]1CCCN1C(=O)[C@H](CCCCN)NC(=O)[C@H](Cc1ccc(O)cc1)NC(=O)[C@@H](N)Cc1c[nH]c2ccccc12)C(C)C)C(N)=O
remaining at 0.25 h, 1 µM [5]: 48%

Structure (SMILES): CC(C)C[C@H](NC(=O)[C@H](CC(C)C)NC(=O)CNC(=O)[C@H](C)NC(=O)[C@H](C)NC(=O)[C@H](CCCNC(=N)N)NC(=O)CNC(=O)CCCCNC(=O)CCCCNC(=O)CCCCNC(=O)[C@H](CCCCN)NC(=O)[C@H](Cc1ccc(O)cc1)NC(=O)[C@H](Cc1c[nH]c2ccccc12)NC(=O)CCc1c[nH]c2ccccc12)C(N)=O ({Propanoyl(3-indol-3-yl)}-WYK[Ava][Ava][Ava]GRAAGLL-NH2)
EC50 [1]: 8 nM | EC50 [6]: 2.7 nM | remaining at 0.25 h, 1 µM [5]: 86% | half-life at 1 µM [7]: 39.1 min

Structure (SMILES): CCCCCCCCCCCCCCCC(=O)NCCCC[C@@H](NC(=O)[C@H](CCCCN)NC(=O)[C@H](CCCCN)NC(=O)[C@H](CCCCN)NC(=O)[C@H](Cc1ccc(O)cc1)NC(=O)[C@@H](N)Cc1c[nH]c2ccccc12)C(=O)N[C@@H](CCCCN)C(=O)NCCCCC(=O)NCC(=O)N[C@@H](CCCNC(=N)N)C(=O)N[C@@H](C)C(=O)N[C@@H](C)C(=O)NCC(=O)N[C@@H](CC(C)C)C(=O)N[C@@H](CC(C)C)C(N)=O
Activity [4]: 95%

Structure (SMILES): CSCC[C@H](NC(=O)[C@H](CC(C)C)NC(=O)[C@H](CC(C)C)NC(=O)CNC(=O)[C@H](C)NC(=O)[C@H](C)NC(=O)[C@H](CCCNC(=N)N)NC(=O)CNC(=O)[C@@H](NC(=O)[C@@H](NC(=O)[C@H](Cc1cnc[nH]1)NC(=O)[C@H](Cc1ccc(O)cc1)NC(=O)[C@H](CCCNC(=N)N)NC(=O)[C@@H]1CCCN1C(=O)[C@H](CO)NC(=O)[C@H](C)NC(=O)[C@@H](NC(=O)[C@H](Cc1cnc[nH]1)NC(=O)[C@H](CCCCN)NC(=O)[C@H](Cc1ccc(O)cc1)NC(=O)[C@@H](N)Cc1c[nH]c2ccccc12)C(C)C)[C@@H](C)O)C(C)C)C(=O)NCC(=O)N[C@@H](CC(C)C)C(N)=O
EC80 [8]: 20 nM | Emax ([2]; filed as agonist): 100%

The remaining lines, values ahead:

EC50 [1]: 530 nM | Emax [2]: 38%
Structure (SMILES): CC(C)C[C@H](NC(=O)[C@@H](CC(C)C)NC(=O)CNC(=O)[C@H](C)NC(=O)[C@H](C)NC(=O)[C@H](CCCNC(=N)N)NC(=O)CCCCNC(=O)CCCCNC(=O)CCCCNC(=O)[C@H](CCCCN)NC(=O)[C@H](Cc1ccc(O)cc1)NC(=O)[C@@H](N)Cc1c[nH]c2ccccc12)C(N)=O

EC50 [1]: > 10000 nM
Structure (SMILES): CC(C)C[C@H](NC(=O)[C@H](CC(C)C)NC(=O)CNC(=O)[C@H](C)NC(=O)[C@H](C)NC(=O)[C@@H](CCCNC(=N)N)NC(=O)CCCCNC(=O)CCCCNC(=O)CCCCNC(=O)[C@H](CCCCN)NC(=O)[C@H](Cc1ccc(O)cc1)NC(=O)[C@@H](N)Cc1c[nH]c2ccccc12)C(N)=O

EC50 [1]: > 10000 nM | Activity [4]: 95% | IC50 [3]: 840 nM
Structure (SMILES): CC(C)C[C@H](NC(=O)CNC(=O)[C@H](C)NC(=O)[C@H](C)NC(=O)[C@H](CCCNC(=N)N)NC(=O)CNC(=O)CCCCNC(=O)CCCCNC(=O)CCCCNC(=O)[C@H](C)NC(=O)[C@@H](N)Cc1c[nH]c2ccccc12)C(=O)N[C@@H](CC(C)C)C(=O)N[C@@H](CO)C(N)=O (H-WA[Ava][Ava][Ava]GRAAGLLS-NH2)

EC50 [1]: 463 nM | Emax ([2]; filed as agonist): 57%
Structure (SMILES): CC(C)C[C@H](NC(=O)CNC(=O)[C@H](C)NC(=O)[C@H](C)NC(=O)[C@H](CCCNC(=N)N)NC(=O)CCCCNC(=O)CCCCNC(=O)CCCCNC(=O)[C@H](CCCCN)NC(=O)[C@H](Cc1ccc(O)cc1)NC(=O)[C@@H](N)Cc1c[nH]c2ccccc12)C(=O)N[C@H](CC(C)C)C(N)=O

EC50 [1]: 578 nM | Emax [2]: 33%
Structure (SMILES): CC(C)C[C@H](NC(=O)[C@H](CC(C)C)NC(=O)CNC(=O)[C@H](C)NC(=O)[C@@H](C)NC(=O)[C@H](CCCNC(=N)N)NC(=O)CCCCNC(=O)CCCCNC(=O)CCCCNC(=O)[C@H](CCCCN)NC(=O)[C@H](Cc1ccc(O)cc1)NC(=O)[C@@H](N)Cc1c[nH]c2ccccc12)C(N)=O

EC50 [1]: 478 nM
Structure (SMILES): CC(C)C[C@H](NC(=O)CNC(=O)[C@H](C)NC(=O)[C@H](C)NC(=O)[C@H](CCCNC(=N)N)NC(=O)CNC(=O)CCCCNC(=O)CCCCNC(=O)CCCCNC(=O)[C@H](C)NC(=O)[C@H](Cc1ccc(O)cc1)NC(=O)[C@@H](N)Cc1c[nH]c2ccccc12)C(=O)N[C@@H](CO)C(=O)N[C@@H](CO)C(N)=O (H-WYA[Ava][Ava][Ava]GRAAGLSS-NH2)

EC50 [1]: > 10000 nM
Structure (SMILES): CC(C)C[C@H](NC(=O)CNC(=O)[C@H](C)NC(=O)[C@H](C)NC(=O)[C@H](C)NC(=O)CNC(=O)CCCCNC(=O)CCCCNC(=O)CCCCNC(=O)[C@H](CCCCN)NC(=O)[C@H](Cc1ccc(O)cc1)NC(=O)[C@@H](N)Cc1c[nH]c2ccccc12)C(=O)N[C@@H](CO)C(=O)N[C@@H](CO)C(N)=O (H-WYK[Ava][Ava][Ava]GAAAGLSS-NH2)
